Data reported in patent US6709873B1, “Method for production of antibodies to specific sites of rapamycin” (Isodiagnostika Inc., priority 1997, dated 2004).
In brackets after ≈: the same amount, converted by molar mass.

Assays:
lymphocytes = experiment: In vitro mixed lymphocyte reaction (MLR) assay, two-way lymphocyte proliferation; format: cell-based; details: Lymphocyte, 3H-thymidine incorporation
Description: The MLR assay is useful for identifying rapamycin metabolites with biological (immunosupressive) activity and to quantify this activity relative to the immunosuppressive activity of the parent rapamycin molecule.
An example of a two-way lymphocyte proliferation assay procedure useful for this purpose is as follows:
1. Collect blood from two individuals (20 mls each) and isolate lymphocytes using Ficoll-Paque™ (polysucrose and sodium diatrizoate) (Pharmacia Biotech).
2. Count lymphocytes at 1:10 dilution in 2% acetic acid (v/v).
3. Prepare 10 mls of each lymphocyte populations (A+B) at 1×10^6 cells/ml in DMEM/20% FCS (v/v).
4. Set up a 96 well sterile tissue culture plate, flat bottom (Sarstedt, cat # 83.1835). To each well add:
5. Aliquot 100 μl per well lymphocyte population A
6. Aliquot 100 μl per well lymphocyte population B
7. Aliquot 20 μl per well of drug (rapamycin and rapamycin metabolites M1-5) serially diluted 0 to 1000 μg/L in triplicate in DMEM with no supplements.
8. […]
10. […] Wash cells 3× with 1.0-ml sterile distilled water.
Note: All procedures are done using sterile techniques in a biological flow hood.
11. Place filters in Scintilation vials and add 1.5 mls of ScintiSafe Plus™ 50% scintillation fluid (Fisher, cat #SX-25-5).
12. Measure the amount of radioactivity incorporated in the lymphocytes using a beta counter (Micromedic System Inc., TAURUS™ Automatic Liquid Scintillation Counter) for 1.0 minute.
13. Calculate averages and standard deviations for each drug and express results as: [formula]

[1] = Relative concentrations of Rapa metabolites in pooled whole blood patient samples (LC/MS); format: in vivo; details: Rapa = 1
Description: No individual metabolite is found at a concentration greater than 20% of the Rapa parent level.

[2] = [14C]-rapamycin, healthy male volunteers; cited from earlier work
MoAb R-4-1 = experiment: Inhibition ELISA of MoAb R-4-1; format: binding, mouse
Method: (§1) Inhibition ELISA Protocol
(§2) 1. Use Falcon® Pro-bind™ inununoplates.
(§3) 2. Dilute coating antigen to 1 μg/mL in carbonate-bicarbonate buffer.
(§4) Add 100 μL per well and incubate overnight at 4° C.
(§5) 3. On the same day prepare inhibiting antigen tubes. Aliquot antibodies into glass test tubes. Prepare appropriate antigen concentration in ethanol and add to aliquoted antibody at 10 μL ethanol solution/250 μL antibody.
(§6) Vortex tubes and incubate overnight at 4° C.
(§7) 4. Shake out wells and wash 3× with 200 μL PBS/0.05% TWEEN™ (polyoxyethylene-sorbitol) (v/v) per well.
(§8) 5. Add 200 μL blocking buffer per well (PBS/2% BSA (w/v)).
(§9) Incubate 60 min at room temperature.
(§10) 7. Transfer contents of inhibition tubes to antigen-coated plate, 100 μL per well. Incubate 60 min at 37° C.
(§11) 9. […] Add 100 μL per well and incubate at 37° C. for 60 min.
(§12) 11. […] Add 100 μL per well and incubate in the dark at room temperature. Absorbance can be read at 405 nm at approximately 15-min intervals.

MoAb R-4-7 = experiment: Inhibition ELISA of MoAb R-4-7; format: binding, mouse
Method: as §1, §2, §3, §4, §5, §6, §7, §8, §9, §10, §11, §12

MoAb R-5-3 = experiment: Inhibition ELISA of MoAb R-5-3; format: binding, mouse
Method: as §1, §2, §3, §4, §5, §6, §7, §8, §9, §10, §11, §12

MoAb R-6-2 = experiment: Inhibition ELISA of MoAb R-6-2; format: binding, mouse
Method: as §1, §2, §3, §4, §5, §6, §7, §8, §9, §10, §11, §12

MoAb R-6-3 = experiment: Inhibition ELISA of MoAb R-6-3; format: binding, mouse
Method: as §1, §2, §3, §4, §5, §6, §7, §8, §9, §10, §11, §12

[3] = test system: Rabbit #1 polyclonal antibody (Rapa-42-DVS-KLH immunogen); experiment: Inhibition ELISA of rabbit #1 polyclonal serum; format: binding; set-up: concentration or dose not given beside the values; details: Rapa antigen coated ELISA plate
Method: as §1, §2, §3, §4, §5, §6, §7, §8, §9, §10, §11, §12

[4] = test system: Chicken polyclonal antibody (IgY, Rapa-42-DVS-KLH immunogen); experiment: Inhibition ELISA of chicken IgY prep; format: binding; set-up: concentration or dose not given beside the values; details: Rapa antigen coated ELISA plate
Method: as §1, §2, §3, §4, §5, §6, §7, §8, §9, §10, §11, §12

[5] = test system: Mouse polyclonal antibody Rapa-DVS #7; experiment: Inhibition ELISA of mouse polyclonal serum Rapa-DVS #7; format: binding; set-up: concentration or dose not given beside the values
Method: as §1, §2, §3, §4, §5, §6, §7, §8, §9, §10, §11, §12

[6] = test system: Mouse polyclonal antibody Rapa-DVS #9; experiment: Inhibition ELISA of mouse polyclonal serum Rapa-DVS #9; format: binding; set-up: concentration or dose not given beside the values
Method: as §1, §2, §3, §4, §5, §6, §7, §8, §9, §10, §11, §12

MoAb R-1-1 = experiment: Inhibition ELISA of MoAb R-1-1; format: binding, mouse; set-up: concentration or dose not given beside the values; details: tissue culture supernatant
Method: as §1, §2, §3, §4, §5, §6, §7, §8, §9, §10, §11, §12
(§13) To further characterize the reactivity of monoclonal antibodies from various clones, inhibition ELISA were performed.

MoAb R-1-5 = experiment: Inhibition ELISA of MoAb R-1-5; format: binding, mouse; set-up: concentration or dose not given beside the values; details: tissue culture supernatant
Method: as §1, §2, §3, §4, §5, §6, §7, §8, §9, §10, §11, §12, §13

MoAb R-2-2 = experiment: Inhibition ELISA of MoAb R-2-2; format: binding, mouse; set-up: concentration or dose not given beside the values; details: tissue culture supernatant
Method: as §1, §2, §3, §4, §5, §6, §7, §8, §9, §10, §11, §12, §13

MoAb R-3-1 = experiment: Inhibition ELISA of MoAb R-3-1; format: binding, mouse; set-up: concentration or dose not given beside the values; details: tissue culture supernatant
Method: as §1, §2, §3, §4, §5, §6, §7, §8, §9, §10, §11, §12, §13

[7] = test system: Mouse polyclonal antibody Rapa-27 #12 (Rapa-27-ox-DVS-KLH immunogen); experiment: Inhibition ELISA of mouse polyclonal serum Rapa-27 #12; set-up: concentration or dose not given beside the values; details: binding to Rapa-27-HSA
Method: as §1, §2, §3, §4, §5, §6, §7, §8, §9, §10, §11, §12

Row | SMILES | IC50 (lymphocytes) [ng/mL] | Relative Concentration in whole blood [1] | share of the total radioactivity in blood [2] | Inhibition of MoAb R-4-1 (in words) (MoAb R-4-1; purified MoAb, increasing concentrations of Rapa or RAD, FIG. 3A) | Inhibition of MoAb R-4-7 (in words) (MoAb R-4-7) | Inhibition of MoAb R-5-3 (in words) (MoAb R-5-3; purified MoAb, increasing concentrations of Rapa or RAD, FIG. 3B) | Percent inhibition of MoAb R-6-2 (MoAb R-6-2) [%] | Percent inhibition of MoAb R-6-3 (MoAb R-6-3) [%] | Percent inhibition of Rabbit #1 polyclonal antibody [3] [%] | Percent inhibition of Chicken polyclonal antibody [4] [%] | Percent inhibition of mouse polyclonal antibody Rapa-DVS #7 [5] [%] | Percent inhibition of mouse polyclonal antibody Rapa-DVS #9 [6] [%] | Percent inhibition of MoAb R-1-1 (MoAb R-1-1) [%] | Percent inhibition of MoAb R-1-5 (MoAb R-1-5) [%] | Percent inhibition of MoAb R-2-2 (MoAb R-2-2) [%] | Percent inhibition of MoAb R-3-1 (MoAb R-3-1) [%] | Percent inhibition of MoAb R-4-1 (MoAb R-4-1; tissue culture supernatant) [%] | Percent inhibition of MoAb R-4-7 (MoAb R-4-7; tissue culture supernatant) [%] | Percent inhibition of MoAb R-5-3 (MoAb R-5-3; tissue culture supernatant) [%] | Percent inhibition of mouse polyclonal antibody Rapa-27 #12 [7] [%]
1 | CO[C@H]1C[C@@H]2CC[C@@H](C)[C@@](O)(O2)C(=O)C(=O)N2CCCC[C@H]2C(=O)O[C@H]([C@H](C)C[C@@H]2CC[C@@H](O)[C@H](OC)C2)CC(=O)[C@H](C)/C=C(\C)[C@@H](O)[C@@H](OC)C(=O)[C@H](C)C[C@H](C)/C=C/C=C/C=C/1C [Rapa, Rapamycin] | 0.48 (≈ 0.525 nM) | 1 | approximately 35% |  |  |  |  |  |  |  |  |  |  |  |  |  |  |  |  | 
2 | CO[C@H]1C[C@@H]2CC[C@@H](C)[C@@](O)(O2)C(=O)C(=O)N2CCCC[C@H]2C(=O)O[C@H]([C@H](C)C[C@@H]2CC[C@@H](OCCO)[C@H](OC)C2)CC(=O)[C@H](C)/C=C(\C)[C@@H](O)[C@@H](OC)C(=O)[C@H](C)C[C@H](C)/C=C/C=C/C=C/1C [RAD] |  |  |  | inhibited | inhibited | inhibited | 70 | 58 |  |  |  |  |  |  |  |  |  |  |  | 
3 | C=CC[C@@H]1/C=C(\C)C[C@H](C)C[C@H](OC)[C@H]2O[C@@](O)(C(=O)C(=O)N3CCCC[C@H]3C(=O)O[C@H](/C(C)=C/[C@@H]3CC[C@@H](O)[C@H](OC)C3)[C@H](C)[C@@H](O)CC1=O)[C@H](C)C[C@@H]2OC [FK, FK-506] |  |  |  |  |  |  | 64 | 53 | 0 | 0 | 5.6 | 13.0 | 43 | 33 | 16 | 1 | 8 | 4 | 4 | 11
